{"source": "paper PMC3038857", "about": "“Using Nuclear Receptor Activity to Stratify Hepatocarcinogens” (PLoS ONE, 2011)", "key": {"RXRa (RXRA)": {"target": "T1, RXRa (RXRA) (Homo sapiens, UniProt P19793)", "T1 sequence (P19793 227-462 limits assumed)": "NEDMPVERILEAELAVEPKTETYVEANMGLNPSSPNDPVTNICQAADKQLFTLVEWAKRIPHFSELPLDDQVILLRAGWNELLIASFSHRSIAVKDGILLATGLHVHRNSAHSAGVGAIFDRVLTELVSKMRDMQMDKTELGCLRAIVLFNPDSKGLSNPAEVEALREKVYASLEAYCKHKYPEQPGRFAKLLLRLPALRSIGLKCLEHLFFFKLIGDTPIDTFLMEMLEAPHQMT", "test": "NCGC_RXRa_Agonist: GAL4 BLAM Reporter gene assay: RXRa", "assay_type": "cell-based", "settings": "agonist mode", "experimental": "These assays measure binding constants and enzyme inhibition values for nuclear receptors. The targets include [drawing 67] , [drawing 68] , [drawing 69] , [drawing 70] , [drawing 71] , [drawing 72] , [drawing 73] , [drawing 74] , [drawing 75] and [drawing 76] . Each of the nuclear receptor targets was measured in agonist mode. Assays were run at the NIH Chemical Genomics Center (Rockville, MD).\nCell-based HTS Assays: These assays measuring binding constants and enzyme inhibition values for nuclear receptors. The targets include AR, ER, FXR, LXR, PPARα, PPARδ, PPARγ, RXRα, RXRβ and PXR. Each of the nuclear receptor targets was measured in both agonist and antagonist mode, but the antagonist data is still undergoing analysis due to possible interference between cytotoxicity and assay activity, so antagonist mode data were not used in the present analysis. Assays were run at the NIH Chemical Genomics Center (Rockville, MD) as part of the Tox21 collaboration. […] The R^2 was required to be ≥0.5. Values where only the highest concentration exceeded 50% activity were excluded to eliminate weak or false positives. Detailed description of the methods, data and analysis methods for this dataset will be presented in a separate publication."}, "Rat Liver [1]": {"test_system": "Rat Liver", "settings": "ref ToxRefDB, cited from earlier work"}, "Rat Liver [2]": {"test_system": "Rat Liver", "settings": "ref ToxRefDB, cited from earlier work", "remark": "listed apart in the source"}, "Rat Liver [3]": {"test_system": "Rat Liver", "settings": "ref ToxRefDB, cited from earlier work", "remark": "listed apart in the source"}, "[4]": {"target": "T2, PPARG (peroxisome proliferator-activated receptor gamma) (Homo sapiens, UniProt P37231)", "T2 construct": "expressed in transfected cells; host or cells: HepG2", "T2 sequence (P37231 1-505)": "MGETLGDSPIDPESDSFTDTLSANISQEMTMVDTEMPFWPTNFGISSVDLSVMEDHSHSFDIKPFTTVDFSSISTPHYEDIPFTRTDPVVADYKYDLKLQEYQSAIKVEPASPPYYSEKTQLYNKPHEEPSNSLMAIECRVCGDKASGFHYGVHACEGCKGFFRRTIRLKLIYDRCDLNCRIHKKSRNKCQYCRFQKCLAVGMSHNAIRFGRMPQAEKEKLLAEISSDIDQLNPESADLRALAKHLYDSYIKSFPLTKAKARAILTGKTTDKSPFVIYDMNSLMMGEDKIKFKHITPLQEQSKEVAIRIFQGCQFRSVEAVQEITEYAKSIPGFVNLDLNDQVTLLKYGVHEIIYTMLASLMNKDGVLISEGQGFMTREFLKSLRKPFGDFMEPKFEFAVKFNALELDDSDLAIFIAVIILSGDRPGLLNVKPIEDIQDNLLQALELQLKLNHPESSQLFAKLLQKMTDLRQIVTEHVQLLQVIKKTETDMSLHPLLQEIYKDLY", "test": "ATG_PPARg_TRANS: Factorial reporter gene assay (HepG2)", "assay_type": "cell-based", "settings": "HepG2 reporter", "procedure,_shortened": "(§1)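 Seven concentrations per chemical, three-fold dilutions down from the MTC, were tested in HepG2 hepatoma cells. Those cells carried a multiple reporter transcription unit library, read either as cis transcription-factor-site reporters or as a trans mammalian one-hybrid panel for nuclear receptors.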"}, "ABCB1": {"test_system": "ABCB1", "test": "CLZD_ABCB1: Change in expression of ABCB1 (primary human hepatocytes)", "assay_type": "cell-based", "settings": "24 hr", "procedure,_shortened": "(§2)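 Five-point concentration series (0.004-40 µM) applied to primary human hepatocytes; 6/24/48 hr timepoints; transcript quantified by multiplexed nuclease protection.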"}, "ABCB11": {"test_system": "ABCB11", "test": "CLZD_ABCB11: Change in expression of ABCB11 (primary human hepatocytes)", "assay_type": "cell-based", "settings": "24 hr", "experimental": "This is a collection of multiplexed gene expression assays focused on Phase I and II xenobiotic metabolizing enzymes and transporters. Human primary cell cultures were treated with chemicals at 5 concentrations (0.004-40 [drawing 42] M) for 6, 24 and 48 hr. Concentration- and time-response profiles of chemicals were measured by the expression of key nuclear receptor target genes, activities of CYP1A enzymes (EROD), and cell morphology. Fourteen gene targets were monitored by quantitative nuclease protection assay including: six representative cytochrome P-450 genes, four hepatic transporters, three Phase II conjugating enzymes, and one endogenous metabolism gene involved in cholesterol synthesis. The target genes associated with nuclear receptor pathways are as follows: [drawing 43] and [drawing 44] with [drawing 45]; [drawing 46] , [drawing 47] , [drawing 48] , [drawing 49] , [drawing 50] and [drawing 51] with [drawing 52]; [drawing 53] , [drawing 54] , [drawing 55] and [drawing 56] with [drawing 57]; [drawing 58] with [drawing 59]; and [drawing 60] with [drawing 61] . Assays were run in primary human hepatocyte cultures by CellzDirect Invitrogen Inc. (Durham, NC), in collaboration with EPA.\nMultiplexed Gene Expression in Human Primary Hepatocytes: This is a collection of multiplexed gene expression assays focused on Phase I and II metabolic enzymes and transporters. […] Fourteen gene targets were monitored by quantitative nuclease protection assay: six representative cytochrome P450 genes, four hepatic transporters, three Phase II conjugating enzymes, and one endogenous metabolism gene involved in cholesterol synthesis. Cells were exposed at 5 concentrations (0.004-40 µM) for 6, 24 or 48 hr. Gene targets are sentinels for five nuclear receptor signaling pathways: AhR, CAR, PXR, FXR, and PPARα. All gene are associated with nuclear receptor pathways: CYP1A1 and CYP1A2 with AHR; ABCB1, ABCG2, CYP2B6, CYP2C9, CYP2C19 and UGT1A1 with CAR; CYP3A4, GSTA2, SLCO1B1 and SULT2A1 with PXR; HMGCS2 with PPARA; and ABCB11 with FXR. […] Detailed description of the methods, data and analysis methods for this dataset will be presented in a separate publication."}, "CYP1A1": {"test_system": "CYP1A1", "test": "CLZD_CYP1A1: Change in expression of CYP1A1 (primary human hepatocytes)", "assay_type": "cell-based", "settings": "24 hr", "procedure,_shortened": "as §2"}, "CYP1A2": {"test_system": "CYP1A2", "test": "CLZD_CYP1A2: Change in expression of CYP1A2 (primary human hepatocytes)", "assay_type": "cell-based", "settings": "24 hr", "procedure,_shortened": "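Cultured primary human hepatocytes treated with chemicals for 6, 24 or 48 hr across five concentrations spanning 0.004-40 µM, then transcript level measured by quantitative nuclease protection in a multiplexed format.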"}, "CYP3A4": {"test_system": "CYP3A4", "test": "CLZD_CYP3A4: Change in expression of CYP3A4 (primary human hepatocytes)", "assay_type": "cell-based", "settings": "24 hr", "procedure,_shortened": "as §2"}, "PXR (NR1I2) [5]": {"target": "T3, PXR (NR1I2) (Homo sapiens, UniProt O75469)", "T3 sequence (O75469 1-434)": "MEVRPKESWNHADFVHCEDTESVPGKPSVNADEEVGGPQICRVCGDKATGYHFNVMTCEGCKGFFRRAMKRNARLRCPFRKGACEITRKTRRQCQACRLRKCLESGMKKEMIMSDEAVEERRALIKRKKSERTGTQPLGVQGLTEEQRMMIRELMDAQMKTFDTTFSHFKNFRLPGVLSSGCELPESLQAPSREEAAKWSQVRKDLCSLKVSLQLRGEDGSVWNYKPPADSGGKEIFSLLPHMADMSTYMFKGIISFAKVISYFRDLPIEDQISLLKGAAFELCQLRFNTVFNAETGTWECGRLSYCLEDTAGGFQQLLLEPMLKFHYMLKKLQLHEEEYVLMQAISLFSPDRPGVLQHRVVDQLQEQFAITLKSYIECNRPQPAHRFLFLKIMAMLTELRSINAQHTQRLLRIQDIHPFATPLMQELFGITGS", "test": "NVS_NR_hPXR: Human PXR Fluormone PXR (SXR) green (cell-free HTS)", "assay_type": "binding", "procedure,_shortened": "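Responses were normalized to same-plate solvent controls as percent of neutral control. AC50 values came from Hill-equation fits of concentration-response curves.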"}, "CAR (NR1I3)": {"target": "T4, CAR (NR1I3) (Homo sapiens, UniProt Q14994)", "T4 sequence (Q14994 1-352)": "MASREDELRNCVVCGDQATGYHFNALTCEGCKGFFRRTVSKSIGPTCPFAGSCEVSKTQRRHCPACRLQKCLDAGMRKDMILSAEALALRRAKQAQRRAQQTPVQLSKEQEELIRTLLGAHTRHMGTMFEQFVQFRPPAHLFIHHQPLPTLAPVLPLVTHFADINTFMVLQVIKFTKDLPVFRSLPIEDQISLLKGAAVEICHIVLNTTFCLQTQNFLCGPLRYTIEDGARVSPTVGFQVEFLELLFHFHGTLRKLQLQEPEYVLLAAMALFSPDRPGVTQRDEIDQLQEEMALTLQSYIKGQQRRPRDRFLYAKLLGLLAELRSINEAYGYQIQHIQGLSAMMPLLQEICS", "test": "ATG_PBREM_CIS: Factorial reporter gene assay (HepG2)", "assay_type": "cell-based", "set-up": "endogenous in cells; host or cells: HepG2", "settings": "HepG2 reporter", "experimental": "A multiple reporter transcription unit (MRTU) library consisting of 48 transcription factor binding sites was transfected into the HepG2 human liver hepatoma cell line. In addition to the cis-acting reporter genes (CIS), a modification of the approach was used to generate a trans-system (TRANS) with a mammalian one-hybrid assay consisting of an additional 25 MRTU library reporting the activity of nuclear receptor super-family members. […] These assays were performed by Attagene Inc. (Morrisville NC) under contract to EPA.\nIn addition to the cis-acting reporter genes (CIS), a modification of the approach was used to generate a trans-system (TRANS) with a mammalian one-hybrid assay consisting of an additional 25 MRTU library reporting the activity of nuclear receptor super-family members. […] Chemicals were then tested in the CIS and TRANS assays at seven concentrations starting at the MTC and followed by three-fold serial dilutions. These assays were performed by Attagene Inc. (Morrisville NC) under contract to EPA. Detailed description of the methods, data and analysis methods for this dataset will be presented in a separate publication."}, "PXR (NR1I2) [6]": {"target": "T3, PXR (NR1I2)", "test": "ATG_PXRE_CIS: Factorial reporter gene assay (HepG2)", "assay_type": "cell-based", "set-up": "endogenous in cells; host or cells: HepG2", "settings": "HepG2 reporter", "procedure,_shortened": "as §1"}}, "note": "Where two headings read alike, the source gives them in different places."}
{"smiles": "OCCOc1ccccc1", "note": "[r243]", "values": [{"measurement": "NCGC_RXRa_Agonist", "setting": "RXRa (RXRA)", "value": 4.774}]}
{"smiles": "CS(=O)(=O)c1ccc(C(=O)C2C(=O)CCCC2=O)c([N+](=O)[O-])c1", "note": "[row 195]", "values": [{"measurement": "NCGC_RXRa_Agonist", "setting": "RXRa (RXRA)", "value": 4.471}, {"measurement": "CHR_Rat_Liver_1_AnyLesion", "setting": "Rat Liver [1]; chronic rat study, liver", "value": 6}, {"measurement": "CHR_Rat_Liver_2_PreneoplasticLesion", "setting": "Rat Liver [2]; chronic rat study, liver", "value": 0}, {"measurement": "CHR_Rat_Liver_3_NeoplasticLesion", "setting": "Rat Liver [3]; chronic rat study, liver", "value": 0}]}
{"smiles": "COC(=O)N(OC)c1ccccc1COc1ccn(-c2ccc(Cl)cc2)n1", "note": "[r270]", "values": [{"measurement": "ATG_PPARg_TRANS", "setting": "[4]", "value": 6.119}, {"measurement": "CLZD_ABCB1_24", "setting": "ABCB1", "value": 5.275}, {"measurement": "CLZD_ABCB11_24", "setting": "ABCB11", "value": 5.366}, {"measurement": "CLZD_CYP1A1_24", "setting": "CYP1A1", "value": 6.198}, {"measurement": "CLZD_CYP1A2_24", "setting": "CYP1A2", "value": 6.309}, {"measurement": "CLZD_CYP3A4_24", "setting": "CYP3A4", "value": 5.335}, {"measurement": "NVS_NR_hPXR", "setting": "PXR (NR1I2) [5]", "value": 5.183}, {"measurement": "CHR_Rat_Liver_1_AnyLesion", "setting": "Rat Liver [1]; chronic study, rat liver", "value": 6}, {"measurement": "CHR_Rat_Liver_2_PreneoplasticLesion", "setting": "Rat Liver [2]; chronic study, rat liver", "value": 0}, {"measurement": "CHR_Rat_Liver_3_NeoplasticLesion", "setting": "Rat Liver [3]; chronic study, rat liver", "value": 0}, {"measurement": "ATG_PBREM_CIS", "setting": "CAR (NR1I3)", "value": 5.658}, {"measurement": "ATG_PXRE_CIS", "setting": "PXR (NR1I2) [6]", "value": 5.62}]}
